# Experimental data as given in patent US6465395B2, “Substituted methylene pyrazolinones and the herbicidal use thereof” (BASF Aktiengesellschaft, priority 2000, dated 2002).
# Tests used:
# Format in all cases: in vivo
# [1] = test system: GOSHI, Cotton, Gossypium hirsutum, L.; test: Postemergence herbicidal evaluation; conditions: crop (cotton)
# Description: (§1) The postemergence herbicidal activity of the compounds of the present invention is evaluated by the following tests. Seedling plants are grown in jiffy flats for about two weeks. The test compounds are dispersed in 80/20 (v/v) acetone/water mixtures containing 1.0% SUN-IT®II, a methylated seed oil, in sufficient quantities to provide the equivalent of about 0.006 kg/ha to 0.800 kg/ha of active compound when applied to the plants through a spray nozzle operating at 40 psi for a predetermined time. After spraying, the plants are placed on greenhouse benches and are cared for in accordance with conventional greenhouse procedures. Approximately two to three weeks after treatment, the seedling plants are examined and rated according to the rating system set forth below. Where more than one test is involved for a given compound, the data are averaged.
# [2] = test system: ZEAMX, Corn, Field, Zea mays, L.; test: Postemergence herbicidal evaluation; conditions: crop (corn)
# Description: as §1
# [3] = test system: SETVI, Foxtail, Green, Setaria viridis, (L.) Beau; test: Postemergence herbicidal evaluation
# Description: as §1
# [4] = test system: ECHCG, Barnyardgrass, Echinochloa crus-galli, (L.) Beau; test: Postemergence herbicidal evaluation
# Description: as §1
# [5] = test system: ABUTH, Velvetleaf, Abutilon theophrasti, Medic.; test: Postemergence herbicidal evaluation
# Description: as §1
# [6] = test system: ORYSAT, Rice, Tebonnet, Oryza sativa, (L.) Tebonnet; test: Postemergence herbicidal evaluation; conditions: crop (rice)
# Description: as §1
# [7] = test system: PANDI, Panicum, Fall, Panicum dichotomiflorum, Michx; test: Postemergence herbicidal evaluation
# Description: as §1
# [8] = test system: CHEAL, Lambsquarters, Chenopodium album, L.; test: Postemergence herbicidal evaluation
# Description: as §1
# [9] = test system: AMBEL, Ragweed, Ambrosia artemisifolia, L.; test: Postemergence herbicidal evaluation
# Description: as §1
# [10] = test system: IPOSS, Morningglory spp., Ipomoea spp.; test: Postemergence herbicidal evaluation
# Description: as §1
# [11] = test system: ZEAMX, Corn, Field, Zea mays, L.; test: Preemergence herbicidal evaluation; conditions: crop (corn)
# Source text: (§2) The preemergence herbicidal activity of the test compounds of the present invention is exemplified by the following tests in which the seeds of a variety of monocotyledonous and dicotyledonous plants are separately mixed with potting soil and planted on top of approximately one inch of soil in separate pint cups. After planting, the cups are sprayed with the selected aqueous acetone solution containing test compound in sufficient quantity to provide the equivalent of about 0.0125 kg/ha to 0.800 kg/ha of test compound per cup. The treated cups are then placed on greenhouse benches, watered and cared for in accordance with conventional greenhouse procedures. Approximately two to four weeks after treatment, the tests are terminated and each cup is examined and rated according to the rating system provided in Example 12. When more than one test is performed for a given compound, the data are averaged.
# [12] = test system: SETVI, Foxtail, Green, Setaria viridis, (L.) Beau; test: Preemergence herbicidal evaluation
# Source text: as §2
# [13] = test system: ECHCG, Barnyardgrass, Echinochloa crus-galli, (L.) Beau; test: Preemergence herbicidal evaluation
# Source text: as §2
# [14] = test system: ABUTH, Velvetleaf, Abutilon theophrasti, Medic.; test: Preemergence herbicidal evaluation
# Source text: as §2
# [15] = test system: ORYSAT, Rice, Tebonnet, Oryza sativa, (L.) Tebonnet; test: Preemergence herbicidal evaluation; conditions: crop (rice)
# Source text: as §2
# [16] = test system: PANDI, Panicum, Fall, Panicum dichotomiflorum, Michx; test: Preemergence herbicidal evaluation
# Source text: as §2
# [17] = test system: GOSHI, Cotton, Gossypium hirsutum, L.; test: Preemergence herbicidal evaluation; conditions: crop (cotton)
# Source text: as §2
# [18] = test system: CHEAL, Lambsquarters, Chenopodium album, L.; test: Preemergence herbicidal evaluation
# Source text: as §2
# [19] = test system: AMBEL, Ragweed, Ambrosia artemisifolia, L.; test: Preemergence herbicidal evaluation
# Source text: as §2
# [20] = test system: IPOSS, Morningglory spp., Ipomoea spp.; test: Preemergence herbicidal evaluation
# Source text: as §2
structure (smiles),measurement,setting,value
"CCCS/C(=C1/C=NN(CC)C1=O)c1ccc2c(c1C)/C(=N/OC)CCS2(=O)=O [Example 8b, 1-Ethyl-4-[(Z)-(5-methyl-4-oxothiochroman-6-yl)(propythio)methylene]-2-pyrazolin-5-one 4′-[(E)-O-methyloxime], S,S-dioxide]",Herbicide rating GOSHI,[1]; 0.0500 kg/ha,0.0
same,Herbicide rating GOSHI,[1]; 0.1000 kg/ha,0.0
same,Herbicide rating GOSHI,[1]; 0.2000 kg/ha,0.0
same,Herbicide rating GOSHI,[1]; 0.4000 kg/ha,4.0
same,Herbicide rating GOSHI,[1]; 0.8000 kg/ha,4.5
same,Herbicide rating ZEAMX,[2]; 0.0500 kg/ha,0.0
same,Herbicide rating ZEAMX,[2]; 0.1000 kg/ha,0.0
same,Herbicide rating ZEAMX,[2]; 0.2000 kg/ha,0.0
same,Herbicide rating ZEAMX,[2]; 0.4000 kg/ha,0.0
same,Herbicide rating ZEAMX,[2]; 0.8000 kg/ha,0.0
same,Herbicide rating SETVI,[3]; 0.0500 kg/ha,3.5
same,Herbicide rating SETVI,[3]; 0.1000 kg/ha,3.5
same,Herbicide rating SETVI,[3]; 0.2000 kg/ha,4.0
same,Herbicide rating SETVI,[3]; 0.4000 kg/ha,9.0
same,Herbicide rating SETVI,[3]; 0.8000 kg/ha,9.0
same,Herbicide rating ECHCG,[4]; 0.0500 kg/ha,6.5
same,Herbicide rating ECHCG,[4]; 0.1000 kg/ha,8.0
same,Herbicide rating ECHCG,[4]; 0.2000 kg/ha,8.0
same,Herbicide rating ECHCG,[4]; 0.4000 kg/ha,9.0
same,Herbicide rating ECHCG,[4]; 0.8000 kg/ha,9.0
same,Herbicide rating ABUTH,[5]; 0.0500 kg/ha,1.0
same,Herbicide rating ABUTH,[5]; 0.1000 kg/ha,0.0
same,Herbicide rating ABUTH,[5]; 0.2000 kg/ha,5.0
same,Herbicide rating ABUTH,[5]; 0.4000 kg/ha,5.0
same,Herbicide rating ABUTH,[5]; 0.8000 kg/ha,6.0
same,Herbicide rating ORYSAT,[6]; 0.0500 kg/ha,1.0
same,Herbicide rating ORYSAT,[6]; 0.1000 kg/ha,1.7
same,Herbicide rating ORYSAT,[6]; 0.2000 kg/ha,3.5
same,Herbicide rating ORYSAT,[6]; 0.4000 kg/ha,1.5
same,Herbicide rating ORYSAT,[6]; 0.8000 kg/ha,3.5
same,Herbicide rating PANDI,[7]; 0.0500 kg/ha,2.0
same,Herbicide rating PANDI,[7]; 0.1000 kg/ha,6.0
same,Herbicide rating PANDI,[7]; 0.2000 kg/ha,7.0
same,Herbicide rating PANDI,[7]; 0.4000 kg/ha,7.0
same,Herbicide rating PANDI,[7]; 0.8000 kg/ha,6.0
same,Herbicide rating CHEAL,[8]; 0.0500 kg/ha,7.0
same,Herbicide rating CHEAL,[8]; 0.1000 kg/ha,8.0
same,Herbicide rating CHEAL,[8]; 0.2000 kg/ha,8.0
same,Herbicide rating CHEAL,[8]; 0.4000 kg/ha,9.0
same,Herbicide rating CHEAL,[8]; 0.8000 kg/ha,9.0
same,Herbicide rating AMBEL,[9]; 0.0500 kg/ha,0.0
same,Herbicide rating AMBEL,[9]; 0.1000 kg/ha,5.0
same,Herbicide rating AMBEL,[9]; 0.2000 kg/ha,7.0
same,Herbicide rating AMBEL,[9]; 0.4000 kg/ha,7.0
same,Herbicide rating AMBEL,[9]; 0.8000 kg/ha,7.0
same,Herbicide rating IPOSS,[10]; 0.0500 kg/ha,0.0
same,Herbicide rating IPOSS,[10]; 0.1000 kg/ha,0.0
same,Herbicide rating IPOSS,[10]; 0.2000 kg/ha,0.0
same,Herbicide rating IPOSS,[10]; 0.4000 kg/ha,0.0
same,Herbicide rating IPOSS,[10]; 0.8000 kg/ha,0.0
same,Herbicide rating ZEAMX,[11]; 0.2000 kg/ha,0.0
same,Herbicide rating ZEAMX,[11]; 0.4000 kg/ha,0.0
same,Herbicide rating ZEAMX,[11]; 0.8000 kg/ha,0.0
same,Herbicide rating SETVI,[12]; 0.2000 kg/ha,3.0
same,Herbicide rating SETVI,[12]; 0.4000 kg/ha,0.0
same,Herbicide rating SETVI,[12]; 0.8000 kg/ha,3.0
same,Herbicide rating ECHCG,[13]; 0.2000 kg/ha,0.0
same,Herbicide rating ECHCG,[13]; 0.4000 kg/ha,0.0
same,Herbicide rating ECHCG,[13]; 0.8000 kg/ha,0.0
same,Herbicide rating ABUTH,[14]; 0.2000 kg/ha,0.0
same,Herbicide rating ABUTH,[14]; 0.4000 kg/ha,0.0
same,Herbicide rating ABUTH,[14]; 0.8000 kg/ha,9.0
same,Herbicide rating ORYSAT,[15]; 0.2000 kg/ha,0.0
same,Herbicide rating ORYSAT,[15]; 0.4000 kg/ha,0.0
same,Herbicide rating ORYSAT,[15]; 0.8000 kg/ha,0.0
same,Herbicide rating PANDI,[16]; 0.2000 kg/ha,2.0
same,Herbicide rating PANDI,[16]; 0.4000 kg/ha,7.0
same,Herbicide rating PANDI,[16]; 0.8000 kg/ha,7.0
same,Herbicide rating GOSHI,[17]; 0.2000 kg/ha,0.0
same,Herbicide rating GOSHI,[17]; 0.4000 kg/ha,0.0
same,Herbicide rating GOSHI,[17]; 0.8000 kg/ha,0.0
same,Herbicide rating CHEAL,[18]; 0.2000 kg/ha,6.0
same,Herbicide rating CHEAL,[18]; 0.4000 kg/ha,7.0
same,Herbicide rating CHEAL,[18]; 0.8000 kg/ha,9.0
same,Herbicide rating AMBEL,[19]; 0.2000 kg/ha,0.0
same,Herbicide rating AMBEL,[19]; 0.4000 kg/ha,3.0
same,Herbicide rating AMBEL,[19]; 0.8000 kg/ha,6.0
same,Herbicide rating IPOSS,[20]; 0.2000 kg/ha,0.0
same,Herbicide rating IPOSS,[20]; 0.4000 kg/ha,0.0
same,Herbicide rating IPOSS,[20]; 0.8000 kg/ha,0.0
